{
  "source": "patent US8618023B2",
  "about": "“Microbiocides” (Syngenta Crop Protection, LLC, priority 2006, dated 2013)",
  "data": [
    {"smiles": "Cn1cc(C(=O)NC2CC2c2ccc(Cl)cc2)c(C(F)F)n1", "note": "(centres unmarked) [Compound 1.001, 3-difluoromethyl-1-methyl-1H-pyrazole-4-carboxylic acid [2-(4-chlorophenyl)-cyclopropyl]-amide]", "values": [
      {"measurement": "melting point", "value": 127, "unit": "°C"}
    ]},
    {"smiles": "O=C(N[C@@H]1C[C@]1(F)c1ccc(Cl)cc1)c1ccccc1C(F)(F)F", "note": "[Compound 6.004, N-[(1R,2S)-2-(4-chlorophenyl)-2-fluoro-cyclopropyl]-2-trifluoromethyl-benzamide]", "values": [
      {"measurement": "melting point", "value": "204 to 206", "unit": "°C"}
    ]}
  ]
}
